Data on two compounds can be found in ChEMBL document CHEMBL4507276 (2021).

The target of data set [1] is GABA-A receptor; anion channel (Rattus norvegicus) (UniProt O09028+P15431+P18506+P18508+P19969+P20236+P23574+P23576+P28471+P28473+P30191+P62813+P63079+P63138+Q91ZM7+Q9ES14). The conditions noted are these: Compound concentration 10.0 uM.
The target of data set [2] is 5-hydroxytryptamine receptor 4 (Homo sapiens) (UniProt Q13639). In words: 5HT4EH_ANTAG Cerep selectivity data (BI). The conditions noted are these: filed as antagonist, Compound concentration 20.0 uM.
Data set [3] has as its target Casein kinase I isoform gamma-1 (Homo sapiens) (UniProt Q9HCP0). Description: CSNK1G1 Invitrogen selectivity data (BI). The conditions noted are these: Compound concentration 3.0 uM.
Data set [4] deals with Vascular endothelial growth factor receptor 2 (Homo sapiens) (UniProt P35968). In words: KDR Invitrogen selectivity data (BI). The conditions noted are these: Compound concentration 3.0 uM.
Data set [5] deals with Myosin light chain kinase, smooth muscle (Homo sapiens) (UniProt Q15746). Description: MYLK Invitrogen selectivity data (BI). The conditions noted are these: Compound concentration 3.0 uM.
Data set [6] has as its target Ribosomal protein S6 kinase alpha-2 (Homo sapiens) (UniProt Q15349). In words: RPS6KA2 Invitrogen selectivity data (BI). The conditions noted are these: Compound concentration 3.0 uM.
Data set [7] has as its target Beta-secretase 1 (Homo sapiens) (UniProt P56817). Description: BACE-1 Cerep selectivity data (BI). The conditions noted are these: Compound concentration 20.0 uM.
Data set [8] addresses T1, Serine/threonine-protein kinase Chk1 (Homo sapiens) (UniProt O14757).
T1 sequence (whole entry): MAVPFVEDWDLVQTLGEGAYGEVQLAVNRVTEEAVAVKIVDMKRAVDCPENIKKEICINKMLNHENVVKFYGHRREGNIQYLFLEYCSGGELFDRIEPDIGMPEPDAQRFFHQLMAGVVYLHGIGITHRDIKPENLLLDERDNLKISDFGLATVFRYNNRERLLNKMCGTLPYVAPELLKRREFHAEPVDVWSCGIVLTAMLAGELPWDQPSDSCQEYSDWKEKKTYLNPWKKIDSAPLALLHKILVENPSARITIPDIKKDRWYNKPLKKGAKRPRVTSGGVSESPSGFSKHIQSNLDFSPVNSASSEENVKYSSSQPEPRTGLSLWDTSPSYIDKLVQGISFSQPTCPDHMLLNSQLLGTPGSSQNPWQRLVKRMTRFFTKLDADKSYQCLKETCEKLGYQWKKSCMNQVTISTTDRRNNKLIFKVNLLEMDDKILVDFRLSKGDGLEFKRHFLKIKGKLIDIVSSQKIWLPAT
In words: CHEK1 Invitrogen selectivity data (BI). The conditions noted are these: Compound concentration 3.0 uM.

Data set [9] deals with Vasoactive intestinal polypeptide receptor 1 (Homo sapiens) (UniProt P32241). Description: VIP1/VPAC1/H Cerep selectivity data (BI). The conditions noted are these: Compound concentration 20.0 uM.
Vasoactive intestinal polypeptide receptor 1 (Homo sapiens), sequence (P32241 whole entry): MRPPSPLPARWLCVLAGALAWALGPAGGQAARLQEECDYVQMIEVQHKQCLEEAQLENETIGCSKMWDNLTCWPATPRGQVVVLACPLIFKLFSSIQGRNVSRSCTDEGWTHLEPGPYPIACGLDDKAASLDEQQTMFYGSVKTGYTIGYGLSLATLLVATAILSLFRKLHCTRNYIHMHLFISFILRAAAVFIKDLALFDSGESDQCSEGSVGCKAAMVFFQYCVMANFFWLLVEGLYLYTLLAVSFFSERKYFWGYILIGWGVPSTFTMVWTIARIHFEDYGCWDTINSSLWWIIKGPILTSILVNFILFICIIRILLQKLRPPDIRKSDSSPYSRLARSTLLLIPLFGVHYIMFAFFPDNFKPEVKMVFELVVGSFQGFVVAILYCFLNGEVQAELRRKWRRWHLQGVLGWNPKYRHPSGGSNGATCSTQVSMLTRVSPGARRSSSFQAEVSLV
For data set [10], the target named is Delta-type opioid receptor (Homo sapiens) (UniProt P41143). In words: DELTA2/H Cerep selectivity data (BI). The conditions noted are these: Compound concentration 20.0 uM.
Data set [11] addresses Tyrosine-protein kinase ABL1 (Homo sapiens) (UniProt P00519). Description: ABL1 Invitrogen selectivity data (BI). The conditions noted are these: Compound concentration 3.0 uM.
Data set [12] addresses Alpha-1B adrenergic receptor (Rattus norvegicus) (UniProt P15823). In words: ALPHA1B/R Eurofins-Panlabs selectivity data (BI). The conditions noted are these: Compound concentration 10.0 uM.
Data set [13] deals with L-type Ca2+ channel (diltiazem site), Cav1.2 alpha-1C (Rattus norvegicus, UniProt P22002). Description: CA+/DILSI/RA Eurofins-Panlabs selectivity data (BI). The conditions noted are these: compound concentration 10 uM, read-out: % Ctrl.
L-type Ca2+ channel (diltiazem site), Cav1.2 alpha-1C, sequence (P22002 whole entry): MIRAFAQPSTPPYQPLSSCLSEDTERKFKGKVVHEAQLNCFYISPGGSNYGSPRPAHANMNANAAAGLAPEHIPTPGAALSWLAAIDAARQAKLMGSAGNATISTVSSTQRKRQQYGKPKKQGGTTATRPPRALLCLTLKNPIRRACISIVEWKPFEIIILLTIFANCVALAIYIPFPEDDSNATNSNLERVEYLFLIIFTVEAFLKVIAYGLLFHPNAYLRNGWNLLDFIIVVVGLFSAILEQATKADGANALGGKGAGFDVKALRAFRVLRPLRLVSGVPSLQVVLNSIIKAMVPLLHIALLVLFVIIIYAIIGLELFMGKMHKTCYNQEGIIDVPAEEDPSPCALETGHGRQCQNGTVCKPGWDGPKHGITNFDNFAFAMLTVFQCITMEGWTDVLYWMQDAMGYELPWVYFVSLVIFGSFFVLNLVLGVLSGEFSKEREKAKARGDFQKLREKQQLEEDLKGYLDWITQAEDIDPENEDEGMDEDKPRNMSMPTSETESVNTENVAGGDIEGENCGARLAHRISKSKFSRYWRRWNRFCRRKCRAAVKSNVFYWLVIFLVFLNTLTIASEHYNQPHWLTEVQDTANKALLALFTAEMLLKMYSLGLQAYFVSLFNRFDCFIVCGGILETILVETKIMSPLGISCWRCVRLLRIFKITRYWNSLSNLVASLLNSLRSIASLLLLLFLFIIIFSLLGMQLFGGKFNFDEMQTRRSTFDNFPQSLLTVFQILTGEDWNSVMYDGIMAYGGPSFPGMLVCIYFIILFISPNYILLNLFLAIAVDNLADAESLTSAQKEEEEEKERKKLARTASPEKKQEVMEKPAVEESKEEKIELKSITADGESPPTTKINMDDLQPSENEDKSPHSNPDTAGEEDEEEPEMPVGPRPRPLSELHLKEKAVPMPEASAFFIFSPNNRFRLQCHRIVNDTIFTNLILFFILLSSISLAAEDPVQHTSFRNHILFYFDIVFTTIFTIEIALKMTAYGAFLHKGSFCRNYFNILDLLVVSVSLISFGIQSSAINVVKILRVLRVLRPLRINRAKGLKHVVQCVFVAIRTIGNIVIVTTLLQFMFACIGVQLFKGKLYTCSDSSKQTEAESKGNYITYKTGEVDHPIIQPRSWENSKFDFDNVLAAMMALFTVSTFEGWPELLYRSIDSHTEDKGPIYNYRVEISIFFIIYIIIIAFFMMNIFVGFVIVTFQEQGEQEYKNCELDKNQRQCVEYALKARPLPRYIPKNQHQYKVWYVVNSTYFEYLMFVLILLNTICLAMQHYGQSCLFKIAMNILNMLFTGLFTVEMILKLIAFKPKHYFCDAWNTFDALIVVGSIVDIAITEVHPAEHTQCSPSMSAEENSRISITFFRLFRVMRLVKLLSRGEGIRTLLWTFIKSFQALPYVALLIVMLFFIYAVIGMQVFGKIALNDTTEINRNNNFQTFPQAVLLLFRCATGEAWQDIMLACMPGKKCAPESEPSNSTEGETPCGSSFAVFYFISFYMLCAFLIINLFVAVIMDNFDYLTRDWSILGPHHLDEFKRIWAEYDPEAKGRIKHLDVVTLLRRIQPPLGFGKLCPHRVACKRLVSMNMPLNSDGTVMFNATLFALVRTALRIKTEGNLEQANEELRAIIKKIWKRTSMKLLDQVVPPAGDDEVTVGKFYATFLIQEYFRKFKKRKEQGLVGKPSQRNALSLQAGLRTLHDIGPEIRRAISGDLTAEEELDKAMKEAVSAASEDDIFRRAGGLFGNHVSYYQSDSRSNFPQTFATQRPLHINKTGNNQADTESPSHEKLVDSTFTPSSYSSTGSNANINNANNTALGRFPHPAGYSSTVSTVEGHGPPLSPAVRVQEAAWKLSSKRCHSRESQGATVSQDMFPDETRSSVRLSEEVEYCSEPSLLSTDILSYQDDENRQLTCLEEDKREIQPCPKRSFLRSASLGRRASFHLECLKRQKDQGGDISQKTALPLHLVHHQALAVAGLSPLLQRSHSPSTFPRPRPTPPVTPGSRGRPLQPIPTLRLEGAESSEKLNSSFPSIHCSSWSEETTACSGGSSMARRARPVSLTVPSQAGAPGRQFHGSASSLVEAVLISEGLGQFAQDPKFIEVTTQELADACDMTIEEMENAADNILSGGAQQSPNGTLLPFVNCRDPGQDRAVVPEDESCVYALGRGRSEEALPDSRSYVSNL
Data set [14] has as its target Muscarinic acetylcholine receptor M3 (Homo sapiens) (UniProt P20309). Description: M3/H Cerep selectivity data (BI). The conditions noted are these: Compound concentration 20.0 uM.
The target of data set [15] is Prostaglandin E2 receptor EP2 subtype (Homo sapiens) (UniProt P43116). Description: EP2(H) Cerep selectivity data (BI). The conditions noted are these: filed as agonist, Compound concentration 20.0 uM.
Prostaglandin E2 receptor EP2 subtype (Homo sapiens), sequence (P43116 whole entry): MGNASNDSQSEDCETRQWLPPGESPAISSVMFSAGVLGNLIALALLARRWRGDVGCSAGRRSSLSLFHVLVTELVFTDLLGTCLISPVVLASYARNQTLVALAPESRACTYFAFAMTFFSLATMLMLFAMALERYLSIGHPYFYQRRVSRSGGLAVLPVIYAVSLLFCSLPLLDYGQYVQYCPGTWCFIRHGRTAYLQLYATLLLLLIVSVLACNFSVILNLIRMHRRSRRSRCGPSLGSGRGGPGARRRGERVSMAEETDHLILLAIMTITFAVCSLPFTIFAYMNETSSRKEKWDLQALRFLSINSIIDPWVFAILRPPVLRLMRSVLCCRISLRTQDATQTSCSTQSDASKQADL
The target of data set [16] is Tyrosine-protein kinase Blk (Homo sapiens) (UniProt P51451). In words: BLK Invitrogen selectivity data (BI). The conditions noted are these: Compound concentration 3.0 uM.
The target of data set [17] is Interleukin-1 receptor type 1 (Mus musculus) (UniProt P13504). In words: IL-1 Eurofins-Panlabs selectivity data (BI). The conditions noted are these: Compound concentration 10.0 uM.
Interleukin-1 receptor type 1 (Mus musculus), sequence (P13504 whole entry): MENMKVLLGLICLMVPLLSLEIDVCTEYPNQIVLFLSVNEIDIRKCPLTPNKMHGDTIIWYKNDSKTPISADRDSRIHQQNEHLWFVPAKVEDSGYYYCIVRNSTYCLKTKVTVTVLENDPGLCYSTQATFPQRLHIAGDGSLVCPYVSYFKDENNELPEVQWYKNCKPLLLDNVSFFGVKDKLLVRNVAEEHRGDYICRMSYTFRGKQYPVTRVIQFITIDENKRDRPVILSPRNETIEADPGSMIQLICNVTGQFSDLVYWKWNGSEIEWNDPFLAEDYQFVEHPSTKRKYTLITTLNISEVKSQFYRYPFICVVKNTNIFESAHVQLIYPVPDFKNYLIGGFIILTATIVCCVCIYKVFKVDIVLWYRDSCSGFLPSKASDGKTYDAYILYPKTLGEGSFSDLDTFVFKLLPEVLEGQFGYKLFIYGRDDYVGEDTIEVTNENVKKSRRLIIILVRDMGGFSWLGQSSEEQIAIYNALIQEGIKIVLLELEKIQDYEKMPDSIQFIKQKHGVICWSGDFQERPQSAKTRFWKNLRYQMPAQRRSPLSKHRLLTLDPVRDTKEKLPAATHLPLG
Data set [18] concerns the target T2, Alpha-2A adrenergic receptor (Homo sapiens) (UniProt P08913).
T2 sequence (whole entry): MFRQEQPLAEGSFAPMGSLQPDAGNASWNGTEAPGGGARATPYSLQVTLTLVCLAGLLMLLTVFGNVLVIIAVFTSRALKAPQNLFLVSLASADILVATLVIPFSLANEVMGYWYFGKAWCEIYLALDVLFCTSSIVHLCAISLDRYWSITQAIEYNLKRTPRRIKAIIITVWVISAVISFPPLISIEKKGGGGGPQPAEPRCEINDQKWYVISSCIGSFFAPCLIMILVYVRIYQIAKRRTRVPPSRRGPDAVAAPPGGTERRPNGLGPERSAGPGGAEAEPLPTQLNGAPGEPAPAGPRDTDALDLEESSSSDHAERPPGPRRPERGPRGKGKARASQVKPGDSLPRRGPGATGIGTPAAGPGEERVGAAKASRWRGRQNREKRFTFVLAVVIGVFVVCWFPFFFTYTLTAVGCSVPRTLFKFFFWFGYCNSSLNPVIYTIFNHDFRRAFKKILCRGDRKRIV
In words: ALPHA2A/HU Cerep selectivity data (BI). The conditions noted are these: Compound concentration 20.0 uM.

The target of data set [19] is Platelet-activating factor receptor (Homo sapiens) (UniProt P25105). Description: PAF/H Eurofins-Panlabs selectivity data (BI). The conditions noted are these: Compound concentration 10.0 uM.
Platelet-activating factor receptor (Homo sapiens), sequence (P25105 whole entry): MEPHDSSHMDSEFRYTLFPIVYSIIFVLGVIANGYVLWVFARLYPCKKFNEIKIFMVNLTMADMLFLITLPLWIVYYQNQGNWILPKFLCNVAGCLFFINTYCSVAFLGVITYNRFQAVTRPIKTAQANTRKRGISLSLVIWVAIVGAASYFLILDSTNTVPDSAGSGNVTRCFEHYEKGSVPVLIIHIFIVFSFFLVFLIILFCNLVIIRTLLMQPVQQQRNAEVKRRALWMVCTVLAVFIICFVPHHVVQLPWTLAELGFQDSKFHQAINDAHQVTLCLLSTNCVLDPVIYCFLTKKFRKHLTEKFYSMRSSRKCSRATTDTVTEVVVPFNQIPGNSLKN
Data set [20] concerns the target Tyrosine-protein kinase CSK (Homo sapiens) (UniProt P41240). Description: CSK Invitrogen selectivity data (BI). The conditions noted are these: Compound concentration 3.0 uM.

Alpha-1B adrenergic receptor (Rattus norvegicus), sequence (P15823 whole entry, looked up): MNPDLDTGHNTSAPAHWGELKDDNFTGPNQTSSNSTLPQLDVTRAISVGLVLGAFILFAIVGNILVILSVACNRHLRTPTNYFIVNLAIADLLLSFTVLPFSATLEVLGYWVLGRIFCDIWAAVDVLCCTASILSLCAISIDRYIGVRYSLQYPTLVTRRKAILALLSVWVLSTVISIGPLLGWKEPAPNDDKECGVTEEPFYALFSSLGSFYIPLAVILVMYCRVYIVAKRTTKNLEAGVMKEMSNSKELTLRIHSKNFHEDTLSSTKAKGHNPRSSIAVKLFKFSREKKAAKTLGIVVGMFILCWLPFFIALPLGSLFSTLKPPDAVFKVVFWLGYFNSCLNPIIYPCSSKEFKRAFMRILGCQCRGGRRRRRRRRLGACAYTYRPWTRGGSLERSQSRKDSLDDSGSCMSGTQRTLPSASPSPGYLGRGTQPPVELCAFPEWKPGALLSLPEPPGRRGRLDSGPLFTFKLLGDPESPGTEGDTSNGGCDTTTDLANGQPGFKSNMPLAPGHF
Tyrosine-protein kinase CSK (Homo sapiens), sequence (P41240 2-450 limits assumed): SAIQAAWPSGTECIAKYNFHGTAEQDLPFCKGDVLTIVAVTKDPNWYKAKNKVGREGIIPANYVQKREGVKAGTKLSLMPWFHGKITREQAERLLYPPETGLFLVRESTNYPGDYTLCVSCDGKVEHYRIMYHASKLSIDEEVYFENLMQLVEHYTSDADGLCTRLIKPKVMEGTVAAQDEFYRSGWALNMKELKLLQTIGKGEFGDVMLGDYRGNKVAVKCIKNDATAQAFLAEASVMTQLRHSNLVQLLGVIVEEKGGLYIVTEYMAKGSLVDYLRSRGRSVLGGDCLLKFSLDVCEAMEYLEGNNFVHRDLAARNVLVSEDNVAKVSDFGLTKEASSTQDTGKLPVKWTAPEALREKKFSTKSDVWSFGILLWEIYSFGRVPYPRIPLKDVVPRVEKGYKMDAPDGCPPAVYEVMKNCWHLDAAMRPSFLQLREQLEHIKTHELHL

In the case of `CN(C)C(=O)Cn1cc(-c2nc(C3(c4ccc(-c5cnc(N)nc5)cc4)CC3)no2)cn1` [BI 0153], the inhibition – broadly, the share of the control response that was lost under treatment – in data set [1] is 6.54%.

As to `CN(C)C(=O)Cn1cc(-c2nc([C@@](C)(c3ccc(-c4cnc(N)nc4)cc3)C3CC3)no2)cn1` [BI 665915], the residual activity was 111% in data set [2]; 97.5% in data set [3]; 90.5% in [4]; 100% in data set [5]; 100% in [6]; 102% in [7]. Further, the residual activity in data set [8] is 96%; in data set [9], 109%; in data set [10], 100%; in [11], 84%; in data set [12], 96%; in [14], 83%. The residual activity in [15] was 97%; in [16], 88.5%; in data set [17] it was 99%; in data set [18], 101%; in [19], 71%; in data set [20], 95%. In [13], the activity at 10 µM is on record as 73% (not active).
